From patent US11235066B2, “Micelles and methods” (THE REGENTS OF THE UNIVERSITY OF MICHIGAN, priority 2015, dated 2022)

Columns and labels:
[1] = mouse, in vivo
Experimental: All tissues (heart, spleen, kidney, liver, and colon) were fixed in phosphate-buffered formalin for 24 h, paraffin-embedded, and cut in 10 μm sections. Routine histology (H&E) was performed. Renal toxicity was assessed after completion of therapy. Histology (H&E) from representative murine kidney sections (n=4) from the different treatment groups were evaluated for tubules with vacuoles on five random fields (400× magnification) for each specimen.

[2] = Body weight and physical signs during therapy; format: in vivo, CPC; Apc mice; settings: vs no treatment (NSS) and plain rapamycin micelles
Experimental: The number of mice (number of adenomas) at the end of the study were n=5 (20), 6 (24), 5 (22), and 7 (21), respectively. Two mice (one in NSS group and one in unlabeled (plain) rapamycin micelle group) died from unexplained cause. […] Mice underwent endoscopy every ˜4 days to monitor adenoma regression and were weighed every 2 days for 5 weeks. A total of n=230 colonoscopy examinations was performed.
A linear mixed effects regression models was used to assess efficacy and toxicity. An interaction between treatment groups and time (days) was estimated in the model to compare adenoma regression rates among the different rapamycin formulations. The model has two random effects to incorporate a correlation between data measured on the same adenoma and a correlation between adenomas found within the same animal. For weights, only one random effect was used to model the correlation between data from the same animal. A comparison was considered significant if P<0.01 to adjust for multiple comparisons. All analyses were performed using SAS ver 9.3. Unless stated otherwise, all data were tested for normality. A one-way ANOVA or non-parametric Kruskal-Wallis was used to determined statistical significance for comparisons among more than 2 groups. If there was at least one difference between treatment groups, multiple comparisons were used to search for pairwise differences. […]

[3] = system: colonic adenomas; experiment: In vivo fluorescence endoscopy of Cy5.5-labeled peptides binding to colonic adenomas; design: species or system CPC; Apc mouse; settings: Cy5.5-labeled peptide, 200 μM via tail vein, 1 hour circulation
Excerpt: Our laboratory has previously identified a group of peptides that bind specifically to colonic adenomas in the CPC; Apc mouse. Peptides […] (SEQ ID NO: 3), KCCFPAQ (SEQ ID NO: 9), LTTHYKL (SEQ ID NO: 18), and AKPGYLS (SEQ ID NO: 17) were identified using phage display technology. Peptides YTTTNAS (SEQ ID NO: 64) and DNEPIAQ (SEQ ID NO: 65) were included as controls. These peptides were identified based on an unbiased screen of cells and tissues to maximize specific binding in vivo. The peptides were labeled with Cy5.5 and injected via tail vein at a concentration of 200 μM in 1×PBS. The peptides were allowed to circulate for 1 hour to allow for non-specific binding to clear. The colon was rinsed again with tap water. Fluorescence images were then collected. […] Fluorescence images for each adenoma were analyzed by defining a region of interest (ROI) around the adenoma and adjacent normal-appearing mucosa using ImageJ software. The mean values were calculated for each ROI, and the T/B ratio was determined. The mean T/B ratio for each peptide was calculated, and Kruskal-Wallis and Dunn's multiple comparison tests were used to determine statistical differences. […]
We performed in vivo imaging of colon in CPC; Apc mice to select the peptide to label the micelles. […] Adenomas with diameter of >1.5 mm were identified, and the location from the anus was recorded. […]

Row | Molecule | renal toxicity: number of vacuolated tubules per high-power field [1] | body weight [2] | target-to-background (T/B) ratio, in vivo fluorescence [3] | target-to-background (T/B) ratio, in vivo fluorescence ([3]; listed as LTTHYKL)
1 | CO[C@H]1C[C@@H]2CC[C@@H](C)[C@@](O)(O2)C(=O)C(=O)N2CCCC[C@H]2C(=O)O[C@H]([C@H](C)C[C@@H]2CC[C@@H](O)[C@H](OC)C2)CC(=O)[C@H](C)/C=C(\C)[C@@H](O)[C@@H](OC)C(=O)[C@H](C)C[C@H](C)/C=C/C=C/C=C/1C [free rapamycin, Rapamycin] | significantly greater number of vacuoles | gained more weight |  | 
2 | LTTHYKL (SEQ ID NO: 18) [LTT*] |  |  | strongest binding | highest mean value
